According to patent publication US6997270B2, “Compounds and method for generating a highly efficient membrane in water-based drilling fluids” (Halliburton Energy Services, Inc., priority 2000, dated 2006):

Assays:
[1] = Membrane efficiency screening test (membrane efficiency screening equipment); details: about 25° Celsius, about 15 MPa
Description: Two types of test equipment are used for the present invention: (i) membrane efficiency screening equipment for tests conducted at 25° Celsius and the test solution at 15 MPa, and (ii) autonomous triaxial test equipment for tests conducted at temperatures above 25° Celsius and/or the test solution at 35 MPa.
The membrane efficiency screening equipment has six test cells. Six different test solutions can be tested under simulated downhole pressure conditions, at any one time with independent, individual test cell control. Referring to FIG. 4, the parts of the cell are shown as follows: Cell-1; Base-2; Bleed Port-3; Confining Fluid Port-4; Downstream Pressure Line (pore fluid)-5; Upstream Pressure Line (test solution)-6; Knurl-7; Top Platen-8; Membrane-9; Sample-10; Bottom Platen-11; O-Rings-12; Collar-13; and Seal-14.
The cell of FIG. 4 has a confining pressure and pore pressure capacity of 35 MPa and 20 MPa respectively. The confining pressure is applied with a Haskel pump and controlled with a high precision stepping motor pump control system. […] Two separate high-pressure gas cylinders provide the upstream and downstream pressures which are controlled by high pressure regulators.
The test procedures for the membrane efficiency screening equipment are as follows: • (a) bleed top (downstream) and bottom (upstream) platens 8 and 11 with simulated pore fluid; • (b) place a sample 10 (25 mm diameter and approximately 10 mm long) between the platens 8 and 11; • (c) jacket the sample in a 1.0 mm thick Viton membrane 9; • (d) mount O-rings 12 over the jacket on the platens 8 and 11; • (e) mount the cell 1; • (f) fill the cell 1 with water; • (g) apply a confining pressure of 20 MPa (via port 4); • (h) apply a back (upstream) pressure of 10 MPa (via line 6) and check for flow across the (upstream) platen 8; • (i) open the downstream pressure valve (on line 5) if the (downstream) pressure is less than 10 MPa; • (j) when the downstream pressure has stabilised at 10 MPa (pressure change <50 kPa/hour, i.e. sample has consolidated), increase the upstream pressure to 15 MPa; • (k) when the downstream pressure has increased by at least 2 MPa (pressure transmitted from the upstream end), reduce the upstream pressure to 10 MPa; • (l) when the downstream pressure has stabilised at 10 MPa (pressure change <50 kPa/hour, i.e. sample has reconsolidated), displace the pore fluid at the upstream end with the test solution at 15 MPa (water activity of test solution is not reduced with electrolyte, i.e. essentially the same as that of the shale); • (m) when the downstream pressure has increased and stabilised (pressure transmitted from the upstream end), displace the test solution (at the upstream end) with the lower water activity solution; • (n) adjust the lower water activity solution circulation rate; and • (o) terminate the test when a maximum decrease in the downstream pressure is observed.
The membrane efficiency obtained from a test is defined as percentage ratio of the maximum differential pressure developed across the shale sample (upstream pressure minus minimum downstream pressure during chemical potential stage) and the theoretical osmotic pressure of the test solution-shale system. The theoretical osmotic pressure is given by: [formula] where Π=osmotic pressure (kPa) • R=gas constant (0.083 liter atm mol^−1 ° K^−1) • T=absolute temperature (° K) • V=partial molar volume of water (0.018 litre mol^−1) • Asol=water activity of lower water activity solution • Ash=water activity of shale

[2] = Phase transition to a hexagonal phase (aqueous concentration); assay type: physicochemical; details: about pH 10; about 25° Celsius
[3] = cited from earlier work
[4] = Membrane efficiency test in autonomous triaxial test equipment (temperatures above 25° Celsius and/or 35 MPa)
Description: Based on the aforementioned fundamental understanding of the membrane generation mechanisms for acid-base species, we have discovered a range of novel compounds for use in water-based drilling fluids that have the capacity to generate a highly efficient membrane on the borehole wall in argillaceous formations. […] Two types of test equipment are used for the present invention: (i) membrane efficiency screening equipment for tests conducted at 25° Celsius and the test solution at 15 MPa, and (ii) autonomous triaxial test equipment for tests conducted at temperatures above 25° Celsius and/or the test solution at 35 MPa.
Referring to FIG. 5, the parts of the cell are shown as follows: Top Plate-20; Bottom Platen-21; Load Cell-22; Top Cap-23; Downstream Pore Pressure Port-24; Removable Cell Body-25; Radial Gauges-26; LVDT-27; Upstream Pore Pressure Port-28; Clamping Ring-29; Upstream Flush Pressure Port-30; O-Ring-31; Membrane-32; Temperature Sensor-33; and Sample 34.
The cell of FIG. 5 has a confining pressure and pore pressure capacity of 70 MPa.
The instruments used to measure the behaviour of the test sample 34 are as follows: • (a) two diametrically-opposed LVDTs (Linear Variable Differential Transformers) 27 mounted between the sample end platens to measure axial deformation of the sample 34; • (b) four cantilever (orthogonal) radial gauges 26 mounted at mid-height of the sample 34 to measure radial deformation; • (c) two thermal sensors 33 to measure sample 34 top and bottom temperatures; • (d) a load cell 22 located underneath the bottom platen 21 to measure axial deviatoric load (not used); • (e) a pressure transducer to measure cell (confining) pressure; and • (f) two pressure transducers to measure pore pressure at both ends of the sample 34.
A computer-controlled system was used to control the cell and pore pressures with stepping motor pumps, and to perform data acquisition. During the test, the cell temperature was maintained constant by placing the autonomous triaxial cell in a temperature-controlled oven. […]

## Oc1ccc2ccccc2c1 [2-naphthol]
[1]; for a given concentration
  Change of membrane generation capacity with pH: did not change significantly between the pH range

## CCCCCCCC/C=C\CCCCCCCC(=O)[O-].C[N+](C)(C)C [Tetramethylammonium oleate]
[1]; about 5 to about 10 wt %, pH about 9, water activity reduced with 33.4 wt % tetramethylammonium chloride
  Membrane efficiency: up to 44%
[2]
  Concentration at which phase transition to a hexagonal phase occurs: about 20 wt %

## C[Si](O)(O)O [methyl silanetriol]
[3]
  pKa: about 11

## [Cl-].[K+] [potassium chloride, reference compound]
[1]; stock solution about 26.3 wt % potassium chloride, pH not adjusted
  Membrane efficiency: about 9%

## C[N+](C)(C)C.[Cl-] [tetramethylammonium chloride, reference compound]
[1]; stock solution about 33.4 wt % tetramethylammonium chloride, pH not adjusted
  Membrane efficiency: about 8%

## CCCCCCCCCCCC(=O)[O-].C[N+](C)(C)C [tetramethylammonium laurate]
[1]; about 5 to about 10 wt %, pH about 7.6 to about 11.5, water activity reduced with 33.4 wt % tetramethylammonium chloride
  Membrane efficiency: up to 57%
[1]; for a given concentration
  Change of membrane generation capacity with pH: increased significantly when pH was increased from about 7.6 to about 11.5
[2]
  Concentration at which phase transition to a hexagonal phase occurs: about 20 wt %

## Potassium methyl siliconate
[1]; about 5 to about 10 wt %, pH about 11.95 to about 12.8, 12, 15 or 20 wt % sodium chloride
  Membrane efficiency: up to 80%
[1]; for a given concentration
  Change of membrane generation capacity with pH: increased greatly when pH was reduced from about 12.8 to about 11.95
[4]; temperature up to about 80° Celsius
  Effect of temperature on membrane generation capacity: not significantly affected by temperature of up to about 80° Celsius
[4]; test solutions at about 35 MPa
  Effect of test solution pressure on membrane generation capacity: only slightly reduced
[4]; test solutions at about 35 MPa, about 40° Celsius to about 80° Celsius
  Membrane efficiency: approximately 54%

## silicic acid
[1]; about 1 wt % and about 2.5 wt %
  Change of membrane generation capacity with pH: essentially the same between pH of about 11.15 and about 12.5
[1]; about 5 wt % to about 10 wt %
  Change of membrane generation capacity with pH: increases with increase in pH
[1]; all concentrations evaluated (about 1 to about 10 wt %), pH about 11.15 to about 12.5, 12 wt % sodium chloride
  Membrane efficiency: > 70%

## sodium methyl siliconate
[1]; about 5 to about 10 wt %, pH about 11.9 to about 12.6, 12 wt % sodium chloride or 16 wt % potassium chloride
  Membrane efficiency: up to 86%
[1]; for a given concentration
  Change of membrane generation capacity with pH: increased greatly when pH was reduced from about 12.6 to about 11.9
